Numbered stars: 1 amine (or outer) side, 2 acyl side, 3 side chain; on linkers, the order of the positions; unused ones are H or OH. Bridge positions count the residues as written; N and C are the ends. Square brackets hold non-standard residues; d marks the D form. Side chains are listed from the residue outwards. Peptide text beside a SMILES is read from it. * marks the point of attachment. C18 diacid = O=C(O)CCCCCCCCCCCCCCCCC(=O)*; γGlu = O=C(O)[C@H](CCC(=O)[*:2])N[*:1]; αMeF = C[C@](N)(Cc1ccccc1)C(=O)O; Aib = CC(C)(N)C(=O)O
Columns and labels:
[1] = biological target: T1, rat calcitonin receptor (rat CTR) (Rattus norvegicus, UniProt P32214); experiment: cAMP production in HEK cells with stable recombinant expression of rat calcitonin receptor (rat CTR); assay type: cell-based; conditions: assay buffer with 0.1% BSA
T1 construct: expressed in transfected cells
T1 sequence (P32214 25-516): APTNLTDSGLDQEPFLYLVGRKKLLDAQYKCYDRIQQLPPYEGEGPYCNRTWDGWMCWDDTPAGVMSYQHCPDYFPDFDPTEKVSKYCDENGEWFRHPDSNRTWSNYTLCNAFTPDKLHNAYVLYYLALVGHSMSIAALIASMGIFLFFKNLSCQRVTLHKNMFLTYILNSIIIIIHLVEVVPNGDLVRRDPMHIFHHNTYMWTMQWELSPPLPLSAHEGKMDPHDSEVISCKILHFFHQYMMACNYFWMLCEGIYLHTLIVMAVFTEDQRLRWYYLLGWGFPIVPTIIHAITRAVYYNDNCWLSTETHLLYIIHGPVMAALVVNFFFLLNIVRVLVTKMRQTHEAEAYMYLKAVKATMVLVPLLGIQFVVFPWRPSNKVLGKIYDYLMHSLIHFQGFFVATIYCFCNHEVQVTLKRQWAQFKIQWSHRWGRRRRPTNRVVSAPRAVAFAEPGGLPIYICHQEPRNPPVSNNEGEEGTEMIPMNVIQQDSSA
Procedure, shortened: (§1)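 EC50 values come from 4-parameter logistic fits of HTRF cAMP signal, normalised to maximal calcitonin or amylin effect. Peptides were tested in duplicate for 30 min at RT in IBMX-containing (0.5 mM) BSA/HEPES buffer pH 7.4 on stable 1321N1 (human CTR, AMYR3) or HEK (rat CTR, AMYR3) lines.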

[2] = Pharmacokinetic determination via IV and SC administration in Sprague Dawley rats; conditions: male, rat, plasma, 20 nmol/kg
[3] = biological target: T2, human amylin receptor (calcitonin receptor co-expressed with receptor activity modifying protein, RAMP3) (hAMYR3) (Homo sapiens, UniProt O60896+P30988); experiment: cAMP production in 1321N1 cells with stable recombinant expression of human amylin receptor (hAMYR3); assay type: cell-based; conditions: for Ratio (selectivity hAMYR vs hCTR, ratio of EC50 values at the two receptors): EC50 hCTR / EC50 hAMYR3; for EC50: cAMP, 1321N1 cells, assay buffer with 0.1% BSA, read-out: EC50 (pM) hAMYR3
T2 construct: expressed in transfected cells
T2 sequence (P30988 25-474): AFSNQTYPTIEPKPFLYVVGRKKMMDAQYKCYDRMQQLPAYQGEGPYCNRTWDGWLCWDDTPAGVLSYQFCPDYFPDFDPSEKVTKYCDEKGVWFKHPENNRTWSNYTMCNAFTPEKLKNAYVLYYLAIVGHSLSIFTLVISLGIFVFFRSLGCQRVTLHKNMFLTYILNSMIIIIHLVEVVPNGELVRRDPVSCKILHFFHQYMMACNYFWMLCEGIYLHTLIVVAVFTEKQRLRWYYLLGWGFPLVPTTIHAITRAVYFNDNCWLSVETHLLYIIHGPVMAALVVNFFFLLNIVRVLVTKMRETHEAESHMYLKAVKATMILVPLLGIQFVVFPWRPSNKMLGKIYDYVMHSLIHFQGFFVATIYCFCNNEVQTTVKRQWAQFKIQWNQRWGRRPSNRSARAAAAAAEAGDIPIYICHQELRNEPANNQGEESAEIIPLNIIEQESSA
T2 sequence (O60896 24-148 partner): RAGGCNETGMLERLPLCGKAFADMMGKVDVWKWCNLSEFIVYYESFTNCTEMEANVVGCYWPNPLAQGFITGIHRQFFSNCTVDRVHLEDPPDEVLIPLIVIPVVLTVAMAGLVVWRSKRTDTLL
Procedure, shortened: as §1

lean rats = experiment: Rat acute food intake study; assay type: in vivo; conditions: lean male Sprague Dawley rats, 20 nmol/kg subcutaneously
Procedure, shortened: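 Male Sprague Dawley rats (n=7/group), fasted 6 h, received 20 nmol/kg test compound or 60 nmol/kg pramlintide subcutaneously 30 min before food return at dark onset. Food intake recorded automatically in home cages over 3 days, binned hourly and analysed as cumulative dark-period intake; body weight taken daily.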

in vivo = conditions: male, Sprague-Dawley, rat, 20 nmol/kg

EC50 [1] [pM]	half-life ([2]; iv) [h]	half-life ([2]; sc) [h]	Ratio (selectivity hAMYR vs hCTR, ratio of EC50 values at the two receptors) [3]	EC50 [3] [pM]	half-life (in vivo; iv) [h]	half-life (in vivo; sc) [h]	Structure (SMILES)	Cummulative food intake (% vehicle treated intake) At 12 h (lean rats) [% vehicle treated intake]	Cummulative food intake (% vehicle treated intake) At 24 h (lean rats) [% vehicle treated intake]	Cummulative food intake (% vehicle treated intake) At 48 h (lean rats) [% vehicle treated intake]
2430	5.6	8.1	42	126			CC[C@H](C)[C@H](NC(=O)[C@@H]1CCCN1C(=O)CNC(=O)[C@H](Cc1ccccc1)NC(=O)[C@H](CC(N)=O)NC(=O)C(C)(C)NC(=O)[C@H](CO)NC(=O)[C@H](CO)NC(=O)[C@H](Cc1c[nH]cn1)NC(=O)[C@H](CCCNC(=N)N)NC(=O)[C@H](CC(C)C)NC(=O)[C@H](Cc1ccccc1)NC(=O)[C@H](CC(N)=O)NC(=O)[C@H](C)NC(=O)[C@H](CC(C)C)NC(=O)[C@H](CCCNC(=N)N)NC(=O)[C@H](CCC(N)=O)NC(=O)[C@@H](NC(=O)[C@H](C)NC(=O)[C@@H]1CSSC[C@H](NC(=O)[C@@H](N)CCCCNC(=O)CC[C@H](NC(=O)CCCCCCCCCCCCCCCCC(=O)O)C(=O)O)C(=O)N[C@@H](CC(N)=O)C(=O)N[C@@H]([C@@H](C)O)C(=O)N[C@@H](C)C(=O)N[C@@H]([C@@H](C)O)C(=O)N1)[C@@H](C)O)C(=O)N[C@@H](CC(C)C)C(=O)N1CCC[C@H]1C(=O)N1CCC[C@H]1C(=O)N[C@H](C(=O)N[C@@H](CC(N)=O)C(=O)N[C@H](C(=O)NCC(=O)N[C@@H](CO)C(=O)N[C@@H](CC(N)=O)C(=O)N[C@H](C(=O)N[C@@H](Cc1ccc(O)cc1)C(N)=O)[C@@H](C)O)C(C)C)[C@@H](C)O [Peptide 48, K(γE-C18diacid)[CNTATC]ATQRLANFLRHSS(Aib)NFGPILPPTNVGSNTY-amide] (H-K([γGlu-C18 diacid])CNTATCATQRLANFLRHSS[Aib]NFGPILPPTNVGSNTY-NH2; disulfide 2-7; N-terminus assumed)	27.5	32.6	57.1
2240	8.9	11	22	284			CC[C@H](C)[C@H](NC(=O)[C@@H]1CCCN1C(=O)CNC(=O)[C@H](Cc1ccccc1)NC(=O)[C@H](CC(N)=O)NC(=O)C(C)(C)NC(=O)[C@H](CO)NC(=O)[C@H](CO)NC(=O)[C@H](Cc1c[nH]cn1)NC(=O)[C@H](CCCNC(=N)N)NC(=O)[C@H](CC(C)C)NC(=O)[C@H](Cc1ccccc1)NC(=O)[C@H](CC(N)=O)NC(=O)[C@H](C)NC(=O)[C@H](CC(C)C)NC(=O)[C@H](CCCNC(=N)N)NC(=O)[C@H](CCC(N)=O)NC(=O)[C@@H](NC(=O)[C@H](C)NC(=O)[C@@H]1CSSC[C@H](NC(=O)[C@@H](N)CCCCNC(=O)CC[C@H](NC(=O)CCCCCCCCCCCCCCCCC(=O)O)C(=O)O)C(=O)N[C@@H](CC(N)=O)C(=O)N[C@@H]([C@@H](C)O)C(=O)N[C@@H](C)C(=O)N[C@@H]([C@@H](C)O)C(=O)N1)[C@@H](C)O)C(=O)N[C@@H](CC(C)C)C(=O)N1CCC[C@H]1C(=O)N1CCC[C@H]1C(=O)N[C@H](C(=O)N[C@@H](CCC(=O)O)C(=O)N[C@H](C(=O)NCC(=O)N[C@@H](CO)C(=O)N[C@@H](CC(N)=O)C(=O)N[C@H](C(=O)N[C@@H](Cc1ccc(O)cc1)C(N)=O)[C@@H](C)O)C(C)C)[C@@H](C)O [Peptide 44, K(γE-C18diacid)[CNTATC]ATQRLANFLRHSS(Aib)NFGPILPPTEVGSNTY-amide] (H-K([γGlu-C18 diacid])CNTATCATQRLANFLRHSS[Aib]NFGPILPPTEVGSNTY-NH2; disulfide 2-7; N-terminus assumed)	33.5	39.2	60.7
2780	10.1	8.8	15	183			CC[C@H](C)[C@H](NC(=O)[C@@H]1CCCN1C(=O)CNC(=O)[C@](C)(Cc1ccccc1)NC(=O)[C@H](CC(N)=O)NC(=O)[C@H](CC(N)=O)NC(=O)[C@H](CO)NC(=O)[C@H](CO)NC(=O)[C@H](Cc1c[nH]cn1)NC(=O)[C@H](CCCNC(=N)N)NC(=O)[C@H](CC(C)C)NC(=O)[C@H](Cc1ccccc1)NC(=O)[C@H](CCC(=O)O)NC(=O)[C@H](C)NC(=O)[C@H](CC(C)C)NC(=O)[C@H](CCCNC(=N)N)NC(=O)[C@H](CCC(N)=O)NC(=O)[C@@H](NC(=O)[C@H](C)NC(=O)[C@@H]1CSSC[C@H](NC(=O)CC[C@H](NC(=O)CCCCCCCCCCCCCCCCC(=O)O)C(=O)O)C(=O)N[C@@H](CC(N)=O)C(=O)N[C@@H]([C@@H](C)O)C(=O)N[C@@H](C)C(=O)N[C@@H]([C@@H](C)O)C(=O)N1)[C@@H](C)O)C(=O)N[C@@H](CC(C)C)C(=O)N1CCC[C@H]1C(=O)N1CCC[C@H]1C(=O)N[C@H](C(=O)N[C@@H](CC(N)=O)C(=O)N[C@H](C(=O)NCC(=O)N[C@@H](CO)C(=O)N[C@@H](CC(N)=O)C(=O)N[C@H](C(=O)N[C@@H](Cc1ccc(O)cc1)C(N)=O)[C@@H](C)O)C(C)C)[C@@H](C)O [Peptide 10, C18diacid-γE-[CNTATC]ATQRLAEFLRHSSNN(αMePhe)GPILPPTNVGSNTY-amide] ({C18 diacid-γGlu}-CNTATCATQRLAEFLRHSSNN[αMeF]GPILPPTNVGSNTY-NH2; disulfide 1-6)	18.8	24.6	46.6
782			15	228	7.4	8.1	CC[C@H](C)[C@H](NC(=O)[C@@H]1CCCN1C(=O)CNC(=O)[C@H](Cc1ccccc1)NC(=O)[C@H](CC(N)=O)NC(=O)C(C)(C)NC(=O)[C@H](CO)NC(=O)[C@H](CO)NC(=O)[C@H](Cc1c[nH]cn1)NC(=O)[C@@H](NC(=O)[C@H](CC(C)C)NC(=O)[C@H](Cc1ccccc1)NC(=O)[C@H](CC(N)=O)NC(=O)[C@H](C)NC(=O)[C@H](CC(C)C)NC(=O)[C@H](CCCNC(=N)N)NC(=O)[C@H](CCC(N)=O)NC(=O)[C@@H](NC(=O)[C@H](C)NC(=O)[C@@H]1CSSC[C@H](NC(=O)[C@H](CCCCN)NC(=O)[C@@H](N)CCCCNC(=O)CC[C@H](NC(=O)CCCCCCCCCCCCCCCCC(=O)O)C(=O)O)C(=O)N[C@@H](CC(N)=O)C(=O)N[C@@H]([C@@H](C)O)C(=O)N[C@@H](C)C(=O)N[C@@H]([C@@H](C)O)C(=O)N1)[C@@H](C)O)C(C)C)C(=O)N[C@@H](CC(C)C)C(=O)N1CCC[C@H]1C(=O)N1CCC[C@H]1C(=O)N[C@H](C(=O)N[C@@H](Cc1c[nH]cn1)C(=O)N[C@H](C(=O)NCC(=O)N[C@@H](CO)C(=O)N[C@@H](CC(N)=O)C(=O)N[C@H](C(=O)N[C@@H](Cc1ccc(O)cc1)C(N)=O)[C@@H](C)O)C(C)C)[C@@H](C)O [Peptide 40, K(γE-C18diacid)K[CNTATC]ATQRLANFLVHSS(Aib)NFGPILPPTHVGSNTY-amide] (H-K([γGlu-C18 diacid])KCNTATCATQRLANFLVHSS[Aib]NFGPILPPTHVGSNTY-NH2; disulfide 3-8)	60.7	51.8	72.4
